We go through six compounds from patent publication US7019144B2, “1,2,4-Triazole derivative, method for preparing the same, and pharmaceutical composition containing the same” (CJ Corp., priority 2002, dated 2006).

The target of one test is T1, COX-1 (Homo sapiens, UniProt P23219).
T1 construct: host or cells: U-937 human lymphoma cells
As to the kind of experiment: Assay for the COX-1 inhibitory activity using U-937 (PGE2 inhibition). Conditions: for inhibition at 1 µM: 1 μM test compound, U-937 human lymphoma cells, PGE2 inhibition vs DMSO, read-out: Cyclooxygenase (COX) Inhibition (%) COX-1 (1 μM); for COX-1 inhibitory activity in comparison with the reference (Valdecoxib): 1 μM, U-937, comparison in words. Format: cell-based. The protocol: The collected cells were diluted with HBSS (×1, Hank's balanced salt solution) to a concentration of 1×10^6 cells/ml. 1 ml of the dilute cell solution was placed into each well of 12-well plates. 5 μl of 1 μM solution of a test compound in DMSO and 5 μl of DMSO as a control were added to the wells. The wells were incubated in CO2 incubator at 37° C. for 15 minutes. Separately, 10 mM stock solution of arachidonic acid in ethanol was diluted ten times in ethanol to prepare 1 mM solution of arachidonic acid. Arachidonic acid acts as a substrate. 10 μl of the 1 mM solution of arachidonic acid was added to each well and incubated at CO2 incubator at 37° C. for 30 minutes. The cell solution of each well was placed in a centrifuge test tube and centrifuged at 10,000 rpm at 4° C. for 5 minutes. The concentration of PGE2 in the collected cells and the supernatant was quantified by means of a monoclonal kit (Cayman Chemicals). The percentages of PGE2 inhibition in a group of the test compound-treated cells in relation to a group of the DMSO-treated cells were calculated. Based on the calculated values, the COX-1 inhibitory activities were evaluated.
(§1) The percentages of the COX inhibition were calculated according to the following equation: % Inhibition=(concentration of PGE2 in test compound-untreated sample−concentration of PGE2 in test compound-treated sample)/(concentration of PGE2 in test compound-untreated sample)×100

Test [1] deals with carrageenan-induced paw edema. Put plainly: Carrageenan-induced paw edema test in rats. Format: in vivo. The note with it: for Inhibitory effect (% inhibition): oral administration, foot swelling 3 hours after carrageenan injection vs control; for COX inhibitory effect (paw edema % inhibition) in comparison with Celecoxib: oral, comparison in words. As for the experimental part: 2. Carrageenan-induced Paw Edema Test in Rats
The day before the test date, rats were selected in each group so that the average body weight was as close as possible, and the rats were fasted by feed withdrawal prior to the test. At the test date, the rats were orally administered with the test compounds and a control material. After 1 hour, the volume (V0h) of a predetermined portion of the left hind foot of the rats was measured with a plethysmometer. 100 μl of 1% carrageenan solution was subcutaneously injected to the left hind foot of the rats using a syringe with 1 ml capacity. Three hours after the injection of the carrageenan, the volume (V3h) of the predetermined portion of the foot was again measured. The foot swelling variation […] in a group of test compound-treated rats was compared with that of a group of control material-treated rats. With the supposition of 0% inhibition by the control (control material-treated rats), the inhibition percentage of edema of each test compound was determined.
On the technique in general: The carrageenan paw model is a standard test of acute inflammation.

For another test, the target named is T2, COX-2 (Mus musculus, UniProt Q05769).
T2 construct: host or cells: RAW 264.7 cells, aspirin-pretreated, then induced with interferon gamma and LPS
T2 sequence (Q05769 18-604): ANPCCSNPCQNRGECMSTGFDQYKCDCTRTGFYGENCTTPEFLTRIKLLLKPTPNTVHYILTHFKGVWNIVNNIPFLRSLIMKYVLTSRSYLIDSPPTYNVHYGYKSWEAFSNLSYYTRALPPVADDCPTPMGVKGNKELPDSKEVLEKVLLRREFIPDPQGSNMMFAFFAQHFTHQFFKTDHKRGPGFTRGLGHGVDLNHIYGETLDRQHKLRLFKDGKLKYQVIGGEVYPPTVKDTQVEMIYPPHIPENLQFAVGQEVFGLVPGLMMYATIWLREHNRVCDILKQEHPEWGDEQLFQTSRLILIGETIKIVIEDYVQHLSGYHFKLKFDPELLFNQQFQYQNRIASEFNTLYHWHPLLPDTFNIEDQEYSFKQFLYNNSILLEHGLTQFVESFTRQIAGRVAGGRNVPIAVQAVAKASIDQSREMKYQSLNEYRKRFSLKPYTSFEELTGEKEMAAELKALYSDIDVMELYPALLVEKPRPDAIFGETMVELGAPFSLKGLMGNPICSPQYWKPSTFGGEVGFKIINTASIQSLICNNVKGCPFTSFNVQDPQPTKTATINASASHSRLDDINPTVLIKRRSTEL
As to the kind of experiment: Assay for the COX-2 inhibitory activity using RAW 264.7 cell line (PGE2, interferon γ/LPS induced). Format: cell-based. Conditions: for COX-2 inhibitory activity in comparison with the reference (Valdecoxib): 10 nM, RAW 264.7, comparison in words; for inhibition at 0.01 µM: RAW264.7, 10 nM test compound, RAW 264.7 cells, interferon γ + LPS, 18 hours, PGE2, read-out: Cyclooxygenase (COX) Inhibition (%) COX-2 (10 nM); for selectivity (COX-2 over COX-1): judged from Table 1, in words. As for the experimental part: Each well was treated with 250 μM of aspirin and incubated at 37° C. for 2 hours. […] Then, each well was treated with interferon γ (100 units/ml) and Iipopolysaccharide (LPS, 100 ng/ml) and incubated for 18 hours. The culture media were transferred to another test tubes. The concentration of PGE2 was quantified by means of the EIA kit (Cayman Chemicals).
as §1

For orientation: inhibition means the share of the control response that was lost under treatment.

T1 sequence (P23219 24-599): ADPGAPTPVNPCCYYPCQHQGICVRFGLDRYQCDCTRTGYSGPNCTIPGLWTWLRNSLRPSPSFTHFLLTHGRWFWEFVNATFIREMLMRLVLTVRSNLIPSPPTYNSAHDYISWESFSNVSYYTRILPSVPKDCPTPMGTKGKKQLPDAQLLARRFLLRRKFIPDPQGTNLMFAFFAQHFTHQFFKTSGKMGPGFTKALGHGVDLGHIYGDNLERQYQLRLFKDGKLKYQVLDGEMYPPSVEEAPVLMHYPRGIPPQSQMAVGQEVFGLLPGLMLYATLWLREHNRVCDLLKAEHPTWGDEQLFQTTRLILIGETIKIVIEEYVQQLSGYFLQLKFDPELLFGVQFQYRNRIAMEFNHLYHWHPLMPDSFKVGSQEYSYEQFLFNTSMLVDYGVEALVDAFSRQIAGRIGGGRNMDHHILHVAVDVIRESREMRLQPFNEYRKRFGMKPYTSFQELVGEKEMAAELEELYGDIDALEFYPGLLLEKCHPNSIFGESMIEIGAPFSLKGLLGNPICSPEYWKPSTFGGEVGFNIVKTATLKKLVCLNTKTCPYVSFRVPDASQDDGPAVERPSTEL

For `COc1ccc(-c2nc(C(F)(F)F)nn2-c2ccc(S(C)(=O)=O)cc2)cc1` [Example 28, 1-(4-methanesulfonylphenyl)-5-(4-methoxyphenyl)-3-trifluoromethyl-1H-[1,2,4]triazole], on COX-1, the inhibition at 1 µM worked out at 10.1% and the “COX-1 inhibitory activity in comparison with the reference (Valdecoxib)” value (“COX-1 inhibitory activity in comparison” for short) was “the same as or lower”. In addition, in test [1], the “Inhibitory effect (% inhibition)” value came out at 23.3 % inhibition. In addition, on COX-2, the “COX-2 inhibitory activity in comparison with the reference (Valdecoxib)” value (shortened to “COX-2 inhibitory activity in comparison”) is on record as “remarkably enhanced”, the inhibition at 0.01 µM was 28.6% and the “selectivity (COX-2 over COX-1)” value is “excellent selectivities”.

As for `COc1ccc(/C=C/c2nc(C(F)(F)F)nn2-c2ccc(S(C)(=O)=O)cc2)cc1` [Example 34, 5-[2-(4-methoxyphenyl)vinyl]-1-(4-methanesulfonylphenyl)-3-trifluoromethyl-1H-[1,2,4]triazole], the inhibition at 1 µM at COX-1 was 23.5%. Moreover, the “Inhibitory effect (% inhibition)” value in test [1] is reported as 19.3 % inhibition. Besides, the inhibition at 0.01 µM at COX-2 is 26.8%.

Consider `CCOc1ccc(-c2nc(C(F)(F)F)nn2-c2ccc(S(C)(=O)=O)cc2)cc1` [Example 35, 5-(4-ethoxyphenyl)-1-(4-methanesulfonylphenyl)-3-trifluoromethyl-1H-[1,2,4]triazole], for which, at COX-1, the inhibition at 1 µM is 11.8% and the “COX-1 inhibitory activity in comparison” value is listed as “the same as or lower”. In test [1], the “Inhibitory effect (% inhibition)” value came to 32.3 % inhibition and the “COX inhibitory effect (paw edema % inhibition) in comparison with Celecoxib” value was “remarkably improved”. For the same compound, on COX-2, the “COX-2 inhibitory activity in comparison” value is “remarkably enhanced”, the inhibition at 0.01 µM was 38.6% and the “selectivity (COX-2 over COX-1)” value is reported as “excellent selectivities”.

Consider `COc1ccc(-c2nc(C(F)(F)F)nn2-c2ccc(S(N)(=O)=O)cc2)cc1` [Example 43, 4-[5-(4-methoxyphenyl)-3-trifluoromethyl-[1,2,4]triazol-1-yl]benzene suffonamide], for which the inhibition at 1 µM at COX-1 came to 34.6%. Further, in test [1], the “Inhibitory effect (% inhibition)” value is reported as 39.1 % inhibition and the “COX inhibitory effect (paw edema % inhibition) in comparison with Celecoxib” value is given as “remarkably improved”. Also, the inhibition at 0.01 µM at COX-2 was determined as 32.3%.

Take `NS(=O)(=O)c1ccc(-n2nc(C(F)(F)F)nc2-c2ccc(Br)cc2)cc1` [Example 44, 4-[5-(4-bromophenyl)-3-trifluoromethyl-[1,2,4]triazol-1-yl]benzene sulfonamide]: at COX-1, the inhibition at 1 µM stood at 23.1% and the “COX-1 inhibitory activity in comparison” value is reported as “the same as or lower”. Besides, in test [1], the “Inhibitory effect (% inhibition)” value is recorded as 28.8 % inhibition and the “COX inhibitory effect (paw edema % inhibition) in comparison with Celecoxib” value is listed as “remarkably improved”. On COX-2, the “COX-2 inhibitory activity in comparison” value is “remarkably enhanced”, the inhibition at 0.01 µM is 29.9% and the “selectivity (COX-2 over COX-1)” value is given as “excellent selectivities”.

As to `CS(=O)(=O)c1ccc(-n2nc(C(F)(F)F)nc2-c2ccc(Br)cc2)nc1` [Example 45, 2-[5-(4-bromophenyl)-3-trifluoromethyl-[1,2,4]triazol-1-yl]-5-methanesulfonyl pyridine], on COX-1, the inhibition at 1 µM came to 14.6% and the “COX-1 inhibitory activity in comparison” value was “the same as or lower”. In test [1], the “Inhibitory effect (% inhibition)” value was determined as 21.6 % inhibition. Further, at COX-2, the “COX-2 inhibitory activity in comparison” value was “remarkably enhanced”, the inhibition at 0.01 µM stood at 33.6% and the “selectivity (COX-2 over COX-1)” value is on record as “excellent selectivities”.
